Test results reported in patent publication US11655239B2 (SHANGHAI INSTITUTE OF MATERIAL MEDICA, CHINESE ACADEMY OF …, priority 2019, dated 2023).

System: MRC-5 induced by TGF-β1
Test: Activation of MRC-5 induced by TGF-β1
Type: cell-based, human
Settings: levels of Fibronectin, α-SMA, Collagen1-α1
Protocol: 1) Preparation of cell protein samples: the cell culture liquid was discarded, wash was performed once with PBS, and samples were collected by adding 1×SDS-Loading. after the samples were collected, they were placed in a metal bath at 100° C., and the samples were boiled for 10 minutes, and then the samples were stored at 4° C. for waiting for subsequent test.
2) Gel preparation and sample loading: according to the molecular weight of the detected protein, different concentrations of separation gel were selected. after filling the 1× electrophoresis buffer, an equal volume of protein sample 4 μl and protein marker were added on the far left to right in sequence.
When the sample was in the concentrated gel, the voltage was set to 80 V; when the sample was electrophoresed to the separation gel, the voltage was increased to 120 V until the bromophenol blue was electrophoresed to reach the bottom of the gel, and the electrophoresis ended. […]
8) Secondary antibodies: the film with the primary antibodies was rewarmed and incubated for about half an hour, and then the primary antibodies were recovered and the film was washed quickly with TBST solution 3 times, 10 minutes each time. […] The dilution ratio of the secondary antibody dedicated for DDR2 was 1:5000; The dilution ratio for the rest of the secondary antibodies were 1:8000, ready for use. […]

SMILES: O=C(Nc1cccc(C(F)(F)F)c1)c1ccc(C2CC2)c(-c2ccc3nc(Nc4cnn(C5CC5)c4)ncc3c2)c1 [Compound S15, 4-cyclopropyl-3-(2-((1-cyclopropyl-1H-pyrazol-4-yl)amino)quinazolin-6-yl)-N-(3-(trifluoromethyl)phenyl)benzamide]
- activation of MRC-5 induced by TGF-β1: inhibit the activation of MRC-5 induced by TGF-β1 in a dose-dependent manner
